According to patent US11535599B2, “Benzisoxazole derivative” (Sumitomo Pharma Co., Ltd., priority 2020, dated 2022):

Experiments:
human Cav3.2 = human Cav3.2 (Homo sapiens (Human), UniProt O95180); experiment: T-type calcium channel inhibitory activity, whole-cell patch-clamp with HEK293 cell; assay type: cell-based; conditions: for IC50: dose-reactive test, read-out: Cav3.2 IC50 (parenthesized)
Experimental: (§1) The inhibitory activity of the present compounds for T-type calcium channel was measured by whole-cell patch-clamp method with HEK293 cell (vendor of HEK 293 cell: ATCC, Manassas, Va., USA, builder of expressing cell: ChanTest Corporation., Cleveland, Ohio, USA), in which human Cav3.1, human Cav3.2, or human Cav3.3 is expressed. The culture medium used for HEK293 cell was prepared by adding fetal bovine serum (10%), sodium penicillin G (100 U/mL), streptomycin sulfate (100 μg/mL), and G418 (500 μg/mL) to a mixture medium of Dulbecco's modified Eagle's medium/Ham's F-12 medium. The whole-cell current was evaluated with IonWorks Barracuda system and Population Patch Clamp (both are provided by Molecular Device Corporation, Union City, Calif., USA). The extracellular recording solution used during the recording was Hanks' balanced salt solution. The internal recording solution used herein was 50 mmol/L CsCl, 90 mmol/L CsF, 5 mmol/L MgCl2, 1 mmol/L glycol ether diamine tetraacetic acid (EGTA), and 10 mmol/L 4-(2-hydroxyethyl)piperazine-1-ethanesulfonic acid (HEPES (pH 7.2). The holding voltage was held at −90 mV, then changed to −65 mV. 60 seconds later, −20 mV pulse was added thereto for 200 millisecond to activate the channel on plasma membrane and generate calcium current. The calcium current was recorded with an amplifier of IonWorks Barracuda system, and analyzed with a program of the system (Version 2.0.2). The record of the calcium current was obtained twice, before and after the addition of the compound. In the measurement after adding the compound, the cells were exposed to the recording solution containing the compound for more than 5 minutes and then the current was measured. In the analyses, the ratio of current readout after the compound addition per current readout before the compound addition was calculated, the calculated value was subtracted from one, and the obtained value was converted to percentage. […] The value obtained from each compound was canonicalized based on the two ends of values to obtain each inhibitory rate. The positive control compound used herein was TTA-A2 which is known as T-type calcium channel inhibitor. IC50 value was calculated with Hill equation.
(§2) Each inhibitory rate (%) against T-type calcium channel at the evaluation concentration of the present compound (600 μmol/L) is shown in Table 12, in which the parenthesized values are IC50 values (μmol/L)) calculated from the dose-reactive test.

human Cav3.3 = human Cav3.3 (Homo sapiens (Human), UniProt Q9P0X4); experiment: as above; assay type: cell-based; conditions: for IC50: dose-reactive test, read-out: Cav3.3 IC50 (parenthesized)
Chain of human Cav3.3 (Q9P0X4 whole entry): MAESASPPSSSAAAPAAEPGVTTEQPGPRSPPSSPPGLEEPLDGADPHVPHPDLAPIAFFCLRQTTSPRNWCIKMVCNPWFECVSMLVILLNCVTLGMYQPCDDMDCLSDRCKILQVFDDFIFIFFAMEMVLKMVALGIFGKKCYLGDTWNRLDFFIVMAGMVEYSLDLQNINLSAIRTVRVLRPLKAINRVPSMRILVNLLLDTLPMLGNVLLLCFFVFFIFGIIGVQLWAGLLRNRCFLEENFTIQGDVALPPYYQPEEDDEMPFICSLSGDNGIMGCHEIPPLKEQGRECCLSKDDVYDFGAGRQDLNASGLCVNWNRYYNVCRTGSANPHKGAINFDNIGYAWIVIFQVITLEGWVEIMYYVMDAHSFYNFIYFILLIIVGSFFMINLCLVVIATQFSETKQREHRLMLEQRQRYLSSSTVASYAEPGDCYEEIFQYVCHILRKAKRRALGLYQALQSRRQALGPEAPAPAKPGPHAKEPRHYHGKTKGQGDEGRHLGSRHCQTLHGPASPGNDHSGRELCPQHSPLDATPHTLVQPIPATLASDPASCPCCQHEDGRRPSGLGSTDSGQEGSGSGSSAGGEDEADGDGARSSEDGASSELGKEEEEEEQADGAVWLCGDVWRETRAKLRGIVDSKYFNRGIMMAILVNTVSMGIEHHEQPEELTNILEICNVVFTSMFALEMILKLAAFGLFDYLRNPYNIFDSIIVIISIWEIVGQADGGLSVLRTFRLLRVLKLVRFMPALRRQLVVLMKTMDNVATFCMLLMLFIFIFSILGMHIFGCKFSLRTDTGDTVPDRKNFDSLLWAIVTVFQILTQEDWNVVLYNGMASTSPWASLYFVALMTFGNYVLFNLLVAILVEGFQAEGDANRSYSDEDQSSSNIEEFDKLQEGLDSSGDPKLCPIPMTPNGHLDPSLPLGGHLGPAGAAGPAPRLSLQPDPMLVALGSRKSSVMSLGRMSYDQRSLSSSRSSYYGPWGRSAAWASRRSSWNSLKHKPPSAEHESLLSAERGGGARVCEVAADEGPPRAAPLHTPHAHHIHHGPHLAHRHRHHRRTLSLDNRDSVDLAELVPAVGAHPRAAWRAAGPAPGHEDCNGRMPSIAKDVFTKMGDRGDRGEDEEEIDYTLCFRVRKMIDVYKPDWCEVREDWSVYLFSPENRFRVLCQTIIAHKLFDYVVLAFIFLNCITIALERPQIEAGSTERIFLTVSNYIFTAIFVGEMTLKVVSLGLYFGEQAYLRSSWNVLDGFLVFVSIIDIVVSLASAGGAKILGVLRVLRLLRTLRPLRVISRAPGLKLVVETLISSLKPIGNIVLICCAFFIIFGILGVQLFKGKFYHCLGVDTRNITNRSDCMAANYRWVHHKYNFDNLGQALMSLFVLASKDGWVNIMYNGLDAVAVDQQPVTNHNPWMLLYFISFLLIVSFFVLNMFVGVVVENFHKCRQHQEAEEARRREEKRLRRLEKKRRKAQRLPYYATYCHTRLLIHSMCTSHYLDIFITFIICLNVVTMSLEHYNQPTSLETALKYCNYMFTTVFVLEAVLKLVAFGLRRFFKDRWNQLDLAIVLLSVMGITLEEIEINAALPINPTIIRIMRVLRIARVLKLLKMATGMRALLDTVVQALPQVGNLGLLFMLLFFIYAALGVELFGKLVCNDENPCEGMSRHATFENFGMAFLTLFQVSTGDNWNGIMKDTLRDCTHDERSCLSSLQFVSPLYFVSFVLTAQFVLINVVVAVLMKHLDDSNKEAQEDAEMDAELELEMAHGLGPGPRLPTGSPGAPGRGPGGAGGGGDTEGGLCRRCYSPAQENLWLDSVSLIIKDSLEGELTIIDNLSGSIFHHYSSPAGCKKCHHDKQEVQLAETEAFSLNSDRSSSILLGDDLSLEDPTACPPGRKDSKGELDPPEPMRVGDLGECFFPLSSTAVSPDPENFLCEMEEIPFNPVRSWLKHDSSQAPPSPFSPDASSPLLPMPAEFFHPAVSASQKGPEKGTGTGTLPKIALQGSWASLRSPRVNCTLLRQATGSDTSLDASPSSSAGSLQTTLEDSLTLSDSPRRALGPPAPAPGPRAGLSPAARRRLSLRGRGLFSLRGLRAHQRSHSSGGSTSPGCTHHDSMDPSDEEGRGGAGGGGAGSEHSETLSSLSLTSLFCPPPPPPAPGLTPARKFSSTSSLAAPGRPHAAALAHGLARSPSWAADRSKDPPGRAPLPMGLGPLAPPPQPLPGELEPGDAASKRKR
Experimental: as §1, §2

[1] = test system: unilateral lesion model of nigrostriatal dopamine neuron induced with 6-OHDA; experiment: Extending duration of levodopa-induced rotational behavior in 6-OHDA unilateral lesion model; assay type: in vivo, rat; conditions: Examples 10 or 30 mg/kg oral; rasagiline 0.6 mg/kg; with levodopa 5 mg/kg i.p.
[2] = test system: levodopa-induced dyskinesia in 6-OHDA unilateral lesion model; experiment: Effect for inhibiting levodopa-induced dyskinesia; assay type: in vivo, rat; conditions: Examples 30 or 100 mg/kg, rasagiline 0.2 or 0.6 mg/kg, daily for two weeks
From the text: A unilateral lesion model of nigrostriatal dopamine neuron induced with 6-hydroxydopamine (6-OHDA) is broadly used for evaluating the drug efficacy for treating Parkinson's disease, as mentioned in Test 2. In addition, it is known that dyskinesia is developed when the present model receives repetitive administration of levodopa, which is similar to the phenomenon that patients of Parkinson's disease who have received long-term administration of levodopa develop dyskinesia. With the present model, the effect of the present compound on the dyskinesia induced by repetitive administration of levodopa was evaluated. As shown in Test 2, a unilateral lesion model of nigrostriatal dopamine neuron was prepared. One day before starting the repetitive administration of levodopa, levodopa methyl ester hydrochloride (5.86 mg/kg) containing benserazide hydrochloride ([…]) (whose ratio was 4:1 in terms of free form) was intraperitoneally administered to the model, and the rotational behavior of the model was observed from 20 minutes to 140 minutes after the administration. The models were classified considering three factors of the total rotation number (20-140 minutes after the administration), the later term of the rotation (120-140 minutes after the administration), and the rotational duration, so that the dispersion of each group could be equal. Two days after the classification, the repetitive administration of levodopa methyl ester hydrochloride (6 mg/kg) and benserazide hydrochloride (12 mg/kg) once a day for two weeks was started. […] The evaluation of dyskinesia was done after one week and two weeks of the repetitive administration. […]

[3] = test system: harmaline-induced essential tremor model; experiment: Anti-tremor effect in harmaline-induced essential tremor model; assay type: in vivo, mouse; conditions: Examples 1, 13: 25 or 50 mg/kg, Example 14: 3.125-25 mg/kg oral; β-propranolol 10 mg/kg i.p.
Experimental: As an animal model of essential tremor, an animal administrated with harmaline is broadly used in its evaluation test. […] The effect of the present compounds for harmaline-acute-administration-induced tremor was studied. To male Crl: CD1 mice (6-7 weeks old) (CHARLES RIVER LABORATORIES JAPAN, INC.), harmaline (30 mg/kg) was intraperitoneally administered to induce tremor. The present compound (Example 1 (25 mg/kg or 50 mg/kg), Example 13 (25 mg/kg or 50 mg/kg), or Example 14 (3.125 mg/kg, 6.25 mg/kg, 12.5 mg/kg, or 25 mg/kg)) was orally administered to the mouse one hour before the administration of harmaline. And, saline or β-propranolol (10 mg/kg) which is a positive control compound was intraperitoneally administered to the mouse 20 minutes before the administration of harmaline. 35 minutes before the administration of harmaline, the mouse was put into a measurement cage (an acrylic cylinder set in a horizontal direction, φ 65 mm, length 145 mm), one cage to one mouse, said measurement cage was in a soundproof box of a startle response instrument (O'hara & Co., Ltd., Tokyo). The trembling that the mouse gave were recorded over time as tremor data. The animal was put into cage, and the data were recorded for 20 minutes just before (PRE) and just after (POST) the administration of harmaline. The time-series signal data were analyzed about frequency with an analysis software, VitalTracer and BIMUTAS II-A (both, Kissei Comtech Co., Ltd., Matsumoto-shi). At 12-15 Hz or 12-18 Hz as a frequency which increases with tremor, the spectrum amounts were extracted, and the tremor intensity T of each subject was calculated according to the following formula. T=POST/PRE

Chain of human Cav3.2 (O95180 whole entry): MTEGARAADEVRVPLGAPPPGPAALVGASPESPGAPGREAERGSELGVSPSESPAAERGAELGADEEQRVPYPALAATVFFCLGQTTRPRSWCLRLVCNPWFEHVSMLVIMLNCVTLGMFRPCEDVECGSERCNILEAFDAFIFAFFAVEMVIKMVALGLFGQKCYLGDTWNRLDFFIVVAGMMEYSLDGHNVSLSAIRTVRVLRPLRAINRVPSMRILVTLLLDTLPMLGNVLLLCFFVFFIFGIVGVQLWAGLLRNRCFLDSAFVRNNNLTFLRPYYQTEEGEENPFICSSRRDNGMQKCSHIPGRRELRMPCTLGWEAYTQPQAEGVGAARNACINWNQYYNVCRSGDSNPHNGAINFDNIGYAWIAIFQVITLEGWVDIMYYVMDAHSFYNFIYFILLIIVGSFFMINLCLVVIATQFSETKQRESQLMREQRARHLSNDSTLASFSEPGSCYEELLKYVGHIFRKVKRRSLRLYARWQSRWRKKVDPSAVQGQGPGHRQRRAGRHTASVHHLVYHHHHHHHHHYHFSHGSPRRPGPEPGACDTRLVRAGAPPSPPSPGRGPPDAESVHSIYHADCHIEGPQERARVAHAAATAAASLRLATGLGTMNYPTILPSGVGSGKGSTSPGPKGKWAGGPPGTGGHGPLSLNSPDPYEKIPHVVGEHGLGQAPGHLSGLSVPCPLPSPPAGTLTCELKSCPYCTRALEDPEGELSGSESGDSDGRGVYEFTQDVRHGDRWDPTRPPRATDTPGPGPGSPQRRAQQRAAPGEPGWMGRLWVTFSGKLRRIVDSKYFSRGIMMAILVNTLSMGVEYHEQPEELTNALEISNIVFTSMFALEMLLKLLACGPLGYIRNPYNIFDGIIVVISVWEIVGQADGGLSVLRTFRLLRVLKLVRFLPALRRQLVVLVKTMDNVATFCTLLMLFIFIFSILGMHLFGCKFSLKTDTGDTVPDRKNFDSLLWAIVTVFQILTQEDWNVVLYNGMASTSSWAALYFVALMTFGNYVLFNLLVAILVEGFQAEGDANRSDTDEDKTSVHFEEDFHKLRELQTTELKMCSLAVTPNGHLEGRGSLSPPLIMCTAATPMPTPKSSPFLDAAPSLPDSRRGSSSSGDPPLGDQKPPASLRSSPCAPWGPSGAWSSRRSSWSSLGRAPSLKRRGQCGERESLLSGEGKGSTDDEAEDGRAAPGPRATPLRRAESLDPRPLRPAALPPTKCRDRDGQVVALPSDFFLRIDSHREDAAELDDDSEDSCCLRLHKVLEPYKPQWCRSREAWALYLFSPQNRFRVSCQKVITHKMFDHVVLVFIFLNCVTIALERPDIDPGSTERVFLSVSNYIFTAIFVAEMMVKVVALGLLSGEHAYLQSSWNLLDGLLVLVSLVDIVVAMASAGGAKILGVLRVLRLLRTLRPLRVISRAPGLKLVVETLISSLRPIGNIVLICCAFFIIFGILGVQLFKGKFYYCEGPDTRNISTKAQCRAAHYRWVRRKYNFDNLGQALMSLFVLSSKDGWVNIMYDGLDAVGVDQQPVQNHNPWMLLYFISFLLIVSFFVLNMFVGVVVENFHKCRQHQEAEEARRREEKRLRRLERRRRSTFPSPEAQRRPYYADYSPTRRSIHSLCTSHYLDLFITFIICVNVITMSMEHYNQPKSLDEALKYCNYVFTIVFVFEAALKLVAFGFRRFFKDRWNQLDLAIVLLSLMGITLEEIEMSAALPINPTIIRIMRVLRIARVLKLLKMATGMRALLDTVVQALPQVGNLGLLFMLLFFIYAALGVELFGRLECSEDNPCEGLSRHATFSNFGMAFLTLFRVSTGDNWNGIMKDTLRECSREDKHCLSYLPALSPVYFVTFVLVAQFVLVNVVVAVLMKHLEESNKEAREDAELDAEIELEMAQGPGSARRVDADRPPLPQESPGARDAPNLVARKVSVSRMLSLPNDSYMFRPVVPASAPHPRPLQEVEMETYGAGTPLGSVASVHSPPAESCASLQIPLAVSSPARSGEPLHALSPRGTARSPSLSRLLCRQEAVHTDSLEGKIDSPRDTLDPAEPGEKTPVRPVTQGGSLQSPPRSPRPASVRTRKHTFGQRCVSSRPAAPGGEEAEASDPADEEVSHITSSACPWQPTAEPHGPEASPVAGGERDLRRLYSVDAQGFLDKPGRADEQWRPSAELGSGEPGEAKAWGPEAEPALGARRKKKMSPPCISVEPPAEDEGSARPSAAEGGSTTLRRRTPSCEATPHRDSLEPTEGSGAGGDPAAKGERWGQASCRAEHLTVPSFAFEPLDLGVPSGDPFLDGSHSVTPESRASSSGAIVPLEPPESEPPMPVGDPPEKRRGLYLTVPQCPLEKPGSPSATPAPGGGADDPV

| Compound | Cav3.2 % inhibitory rate (human Cav3.2; 600 μmol/L) [%] | IC50 (human Cav3.2) [µM] | Cav3.3 % inhibitory rate (human Cav3.3; 600 μmol/L) [%] | IC50 (human Cav3.3) [µM] | rotational number in the late phase (100-120 minutes) [1] | dyskinesia induced by repetitive administration of levodopa (AIMS score) [2] | harmaline-induced tremor intensity [3] | inhibition at 600 µM (human Cav3.2; HEK293, 600 μmol/L, read-out: Cav3.2 % inhibitory rate) [%] | inhibition at 600 µM (human Cav3.3; HEK293, 600 μmol/L, read-out: Cav3.3 % inhibitory rate) [%] |
| --- | --- | --- | --- | --- | --- | --- | --- | --- | --- |
| CC(c1noc2ccccc12)S(N)(=O)=O (centres unmarked) [Example 1, 1-(Benzo[d]isoxazol-3-yl)ethane-1-sulfonamide] | 33.0 | 848 | 30.7 | 922 | significantly increased the rotational number in the late phase | the onset of dyskinesia induced by repetitive administration of levodopa was inhibited | inhibited harmaline-induced tremor |  |  |
| C[C@H](c1noc2ccccc12)S(N)(=O)=O [Example 13, (1R)-1-(1,2-benzoxazol-3-yl)ethane-1-sulfonamide] |  | 713 |  | 746 | significantly increased the rotational number in the late phase | the onset of dyskinesia induced by repetitive administration of levodopa was inhibited | inhibited harmaline-induced tremor | 42.6 | 39.9 |
